“Also recorded” adds a separate entry of the source.
How the values were obtained:
[1] = test system: trauma-induced heterotopic ossification; test: Trauma-potentiated (drop-weight) heterotopic ossification model; format: in vivo; conditions: WT mice; after three weeks; Tfr2-ECD single dose, palovarotene or ibuprofen daily
Protocol: For systemic Tfr2-ECD treatment, WT mice were treated every other day with Tfr2-ECD intraperitoneally for two weeks. Mice received 250 μg Tfr2-ECD (10 mg/kg BW) per injection for the first 10 days after BMP-2/matrigel injection into the muscle and 125 μg per injection (5 mg/kg BW) for the remaining time. This experiment was performed once with 8-10 mice per group. Drop-weight HO: This experiment was performed according to Liu et al. with minor modifications^65. Female 10-12-week-old WT mice were anesthetized and placed on a ridge of a plastic container over which the right leg was bent so the femur was lying horizontally. Mice received an injection of 1 μg BMP-2 mixed in 50 μl matrigel. Afterwards, a stainless-steel ball of 16 g (16 mm diameter) was dropped from a distance of 80 cm height onto the quadriceps muscle. Mice either received a single dose of 1 μg Tfr2-ECD, which was co-injected with the BMP-2/matrigel mixture, or palovarotene (Hycultec), which was administered daily by oral gavage. Palovarotene was dissolved in DMSO and diluted 1:4 with corn oil. Mice received palovarotene at a dose of 100 μg/mouse for the first five days and 50 μg/mouse for the remainder of the experiment (days 621). One group of mice received ibuprofen via the drinking water at a dose of […] which was changed every other day^66. […]

Tfr2-ECD = biological target: T1, Tfr2-ECD (Mus musculus, UniProt Q9JKX3); test: SPR binding of holo-Tf and BMP receptors to Tfr2-ECD immobilized on the sensor chip; parameters: species or system murine; conditions: 200 nM BMP receptors; binding level normalized to molecular weight
T1 construct: full-length extracellular domain (ECD, aa 103-798) of murine Tfr2; His (N); MBP (N); c3 (protease site between MBP and ECD) (N); made in house; host or cells: Sf9 insect cells (baculovirus, pOCC211-Tfr2-ECD)
T1 sequence (Q9JKX3 103-798): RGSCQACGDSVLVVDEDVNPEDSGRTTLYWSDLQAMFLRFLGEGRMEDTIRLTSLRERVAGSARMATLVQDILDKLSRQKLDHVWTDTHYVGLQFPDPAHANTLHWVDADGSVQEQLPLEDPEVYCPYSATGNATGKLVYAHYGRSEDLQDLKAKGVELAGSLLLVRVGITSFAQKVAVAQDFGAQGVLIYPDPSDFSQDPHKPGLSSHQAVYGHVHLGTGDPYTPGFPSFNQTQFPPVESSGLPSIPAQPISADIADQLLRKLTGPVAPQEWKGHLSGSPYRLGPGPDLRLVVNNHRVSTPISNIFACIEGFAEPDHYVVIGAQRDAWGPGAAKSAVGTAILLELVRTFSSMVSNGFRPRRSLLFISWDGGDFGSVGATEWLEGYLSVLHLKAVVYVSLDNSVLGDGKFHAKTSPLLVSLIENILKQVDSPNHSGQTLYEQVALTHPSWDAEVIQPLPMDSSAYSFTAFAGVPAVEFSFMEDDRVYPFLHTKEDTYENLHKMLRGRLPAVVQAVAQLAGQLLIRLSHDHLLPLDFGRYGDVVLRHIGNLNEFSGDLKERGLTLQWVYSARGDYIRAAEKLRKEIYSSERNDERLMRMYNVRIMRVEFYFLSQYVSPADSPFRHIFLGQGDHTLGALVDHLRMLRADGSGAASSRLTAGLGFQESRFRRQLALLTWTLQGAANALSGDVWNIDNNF
Protocol: For this purpose, Tfr2-ECD is immobilized on a Series S Sensor Chip C1 (GE Healthcare), by means of coupling the amino groups at 25° C. The carboxyl groups on the chip surface are activated for 7 minutes using a mixture of 196 mM 1-ethyl-3-(3-dimethylaminopropyl) carbodiimide-hydrochloride and 50 mM n-hydroxysuccinimide at a flow rate of 10 μl/min. Subsequently, 5 μg/ml Tfr2-ECD, diluted with sodium acetate buffer (pH 4.5), is injected at a flow rate of 5 μl/min up to a relative occupancy of 200 RU. Non-reacted groups are inactivated by injecting 1 M thanolamine-HCl (pH 8.5) for 7 minutes at a flow rate of 10 μl/min. In order to prepare a reference surface, the same procedure is carried out but without Tfr2-ECD being injected.
The binding assays are carried out at 37° C. at a flow rate of 30 μl/min. Each analyte is diluted by a running buffer (HBS-P, pH 7.4 together with 50 nM FeCl3). […] The values of the binding level are read out, relative to the baseline, 10 s before the end of the injection and are corrected with respect to the molar mass. […] The binding parameters are determined using the Biacore™ T100 evaluation software 2.03. […]
For binding analysis, an injection of analyte for 240 s or 300 s over a Tfr2-ECD surface was followed by 1000 s dissociation. The values of the binding levels were recorded from referenced signals 10 s before the end of injection relative to baseline response. […]

[2] = test system: BMP-2-induced heterotopic ossification; test: BMP-2-induced heterotopic ossification (HO) mouse model; format: in vivo, mice; conditions: WT mice; day 8; systemic treatment; Safranin O staining
Protocol: Male and female C57BL/6 mice are used for the HO model. The HO is triggered by injecting BMP-2 into the muscle (Wosczyna et al. 2012).
All the mice are fed with standard feed and water ad libitum and are kept in groups of five mice per cage. The mice are exposed to a 12-hour light/dark cycle and air cooling to 23° C. (no special pathogen-free room). Enrichment is provided in the form of cardboard houses and bedding material. The mice are randomly divided into the different treatment groups and the assays are subsequently carried out as blind experiments.
The HO is examined by means of treatment using 2.5 μl of a 1 mg/ml recombinant BMP-2 solution (Thermo Fisher Scientific) or 2.5 μl of a 1 mg/ml Tfr2-ECD mixed with 47.5 μl Matrigel (BD Bioscience) at 0° C. For combination treatment, 2.5 of a 1 mg/ml recombinant BMP-2 solution is mixed with 2.5 μl of a 1 mg/ml Tfr2-ECD and 45 μl Matrigel. The Matrigel mixtures are injected into the musculus tibialis anterior of 10-week-old female wild-type mice. The legs are examined after two weeks.
The bone microarchitecture is analyzed using vivaCT40 (Scanco Medical, Switzerland). The entire lower leg bones are measured at a resolution of 10.5 μm using X-rays of 70 kVp, […] and at an integration time of 200 s. Predefined scripts from Scanco are used to analyze the bone (#1). […]

Compound | New bone formation in the muscle (trauma-induced HO, μCT) [1] | Binding response of BMPRs to Tfr2-ECD compared with BMPs (Tfr2-ECD) | Number of chondrocytes (chondrogenic phase of HO) [2] | Production of cartilage (chondrogenic phase of HO) [2]
CC(C)Cc1ccc(C(C)C(=O)O)cc1 (centres unmarked) [ibuprofen] | did not prevent; also recorded: did not significantly reduce | – | – | –
BMPR-IA: BMP receptor type IA (R&D Systems), positive control in the BMP-2 ELISA | – | weaker than BMPs | – | –
CC1(C)CCC(C)(C)c2cc(Cn3cccn3)c(/C=C/c3ccc(C(=O)O)cc3)cc21 [palovarotene, reference compound] | comparable | – | suppressed | suppressed

Reference: US20240199755A1, “ANTAGONISTS AND AGONISTS OF THE TRANSFERRIN RECEPTOR-2 FOR USE IN THE TREATMENT OF DISEASES OF THE BONE” (Kymab Limited, priority 2018, published 2024)
